Like-named read-outs stand apart in the source and are kept apart here.
What was measured:
Assay type in all cases: cell-based
[1] = system: Human T-lymphoblastic leukaemia cell line CEM; test: MTT cytotoxicity screening assay, CEM; conditions: human T-lymphoblastic leukemia, 72 hours, read-out: TCS50
Text: (§1) One of the parameters used as the basis for colorimetric assays is the metabolic activity of viable cells. For example, a microtiter assay which uses the tetrazolium salt MTT is now widely used to quantitate cell proliferation and cytotoxicity [Hajdúch M, Mihál V, Minarík J, Fáber E, Safárová M, Weigl E, Antálek P.: Cytotechnology, 1996, 19, 243-245]. For instance, this assay is used in drug screening programs and in chemosensitivity testing. Because tetrazolium salts are cleaved only by metabolically active cells, these assays exclusively detect viable cells. In the case of the MTT assay, yellow soluble tetrazolium salt is reduced to a coloured water-insoluble formazan salt. After it is solubilized, the formazan formed can easily and rapidly be quantified in a conventional ELISA plate reader at 570 nm (maximum absorbency). The quantity of reduced formazan corresponds to the number of vital cells in the culture.
(§2) Human T-lymphoblastic leukaemia cell line CEM was used for routine screening of these compounds. […] The cells were maintained in Nunc/Corning 80 cm^2 plastic tissue culture flasks and cultured in cell culture medium (DMEM with 5 g/l glucose, 2 mM glutamine, 100 U/ml penicillin, 100 μg/ml streptomycin, 10% foetal calf serum and sodium bicarbonate). Individual compounds were dissolved in 10% dimethylsulfoxide/saline, pH 8.0.
The cell suspensions that were prepared and diluted according to the particular cell type and the expected target cell density (2.500-30.000 cells per well based on cell growth characteristics) were added by pipette (80 μl) into 96/well microtiter plates. Inoculates were allowed a pre-incubation period of 24 hours at 37° C. and 5% CO2 for stabilisation. Four-fold dilutions of the intended test concentration were added at time zero in 20 μl aliquots to the microtiter plate wells. Usually, test compounds were evaluated at six 4-fold dilutions. In routine testing, the highest well concentration was 250 μM, but it may differ, depending on the agent. All drug concentrations were examined in duplicate. Incubations of cells with the test compounds lasted for 72 hours at 37° C., in 5% CO2 atmosphere and 100% humidity. At the end of the incubation period, the cells were assayed by using the MTT assay. Ten microliters of the MTT stock solution were pipetted into each well and incubated further for 1-4 hours. After this incubation period, formazan was solubilized by the addition of 100 μl/well of 10% SDS in water (pH=5.5) followed by further incubation at 37° C. overnight. The optical density (OD) was measured at 540 nm with the Labsystem iEMS Reader MF(UK). The tumour cell survival (TCS) was calculated using the following equitation: TCS=(ODdrug exposed well/mean ODcontrol wells)×100%. The TCS50 value, the drug concentration lethal to 50% of the tumour cells, was calculated from the obtained dose response curves.
To evaluate the anti-cancer activity of betulinines, their cytotoxic activity against CEM cell line was examined using the screening assay. Potent compounds were further tested against a panel of cell lines of different histogenetic and species origin (Table 2).

[2] = system: K562-ARA-C human promyelocytic leukemia, cytarabin resistant; test: MTT cytotoxicity assay, K562-ARA-C; conditions: 72 hours, read-out: TCS50
Text: as §1, §2
(§3) The cell suspensions that were prepared and diluted according to the particular cell type and the expected target cell density (2.500-30.000 cells per well based on cell growth characteristics) were added by pipette (80 μl) into 96/well microtiter plates. […] Usually, test compounds were evaluated at six 4-fold dilutions. […] The optical density (OD) was measured at 540 nm with the Labsystem iEMS Reader MF(UK). The tumour cell survival (TCS) was calculated using the following equitation: TCS=(ODdrug exposed well/mean ODcontrol wells)×100%. The TCS50 value, the drug concentration lethal to 50% of the tumour cells, was calculated from the obtained dose response curves.

[3] = system: U2OS human osteosarcoma; test: MTT cytotoxicity assay, U2OS; conditions: p53+/−, Rb +/−, 72 hours, read-out: TCS50
Text: as §1, §2, §3

[4] = system: U87MG human glioblastoma; test: MTT cytotoxicity assay, U87MG; conditions: 72 hours, read-out: TCS50
Text: as §1, §2, §3

[5] = system: K562-CdA human promyelocytic leukemia, cladrubin resistant; test: MTT cytotoxicity assay, K562-CdA; conditions: 72 hours, read-out: TCS50
Text: as §1, §2, §3

[6] = system: CEM-DNR 1/C2 human T-lymphoblastic leukemia, daunorubicin resistant; test: MTT cytotoxicity assay, CEM-DNR 1/C2; conditions: 72 hours, read-out: TCS50
Text: as §1, §2, §3

[7] = system: HT-29 human colon cancer; test: MTT cytotoxicity assay, HT-29; conditions: 72 hours, read-out: TCS50
Text: as §1, §2, §3

[8] = system: CEM-DNR bulk human T-lymphoblastic leukemia, daunorubicin resistant; test: MTT cytotoxicity assay, CEM-DNR bulk; conditions: 72 hours, read-out: TCS50
Text: as §1, §2, §3

[9] = system: Caco-2 human colon cancer; test: MTT cytotoxicity assay, Caco-2; conditions: 72 hours, read-out: TCS50
Text: as §1, §2, §3

[10] = system: Saos2 human; test: MTT cytotoxicity assay, Saos2; conditions: p53−/−, Rb−/−, 72 hours, read-out: TCS50
Text: as §1, §2, §3

[11] = system: B16F mouse melanoma, metastatic cell line; test: MTT cytotoxicity assay, B16F; conditions: 72 hours, read-out: TCS50
Text: as §1, §2, §3

[12] = system: HepG2 human hepatocellular carcinoma; test: MTT cytotoxicity assay, HepG2; conditions: 72 hours, read-out: TCS50
Text: as §1, §2, §3

[13] = system: SW620 human colon cancer, metastasis; test: MTT cytotoxicity assay, SW620; conditions: read-out: TCS50
Text: as §1, §2, §3

[14] = system: K562-FLUD human promyelocytic leukemia, fludarabin resistant; test: MTT cytotoxicity assay, K562-FLUD; conditions: 72 hours, read-out: TCS50
Text: as §1, §2, §3

[15] = system: MEL-3 human melanoma; test: MTT cytotoxicity assay, MEL-3; conditions: 72 hours, read-out: TCS50
Text: as §1, §2, §3

[16] = system: CEM-VCR 3/D5 human T-lymphoblastic leukemia, vincristin resistant; test: MTT cytotoxicity assay, CEM-VCR 3/D5; conditions: 72 hours, read-out: TCS50
Text: as §1, §2, §3

[17] = system: human normal lymphocytes; test: MTT cytotoxicity assay, normal lymphocytes; conditions: human normal lymphocytes (non-malignant), 72 hours, read-out: TCS50
Text: as §1, §2, §3

[18] = system: BT549 human breast cancer; test: MTT cytotoxicity assay, BT549; conditions: 72 hours, read-out: TCS50
Text: as §1, §2, §3

[19] = system: CEM-VCR bulk human T-lymphoblastic leukemia, vincristin resistant; test: MTT cytotoxicity assay, CEM-VCR bulk; conditions: 72 hours, read-out: TCS50
Text: as §1, §2, §3

[20] = system: NIH3T3 mouse immortalised fibroblasts; test: MTT cytotoxicity assay, NIH3T3; conditions: NIH3T3, mouse immortalised fibroblasts (non-malignant), 72 hours, read-out: TCS50
Text: as §1, §2, §3

[21] = system: CEM-VCR 1/F3 human T-lymphoblastic leukemia, vincristin resistant; test: MTT cytotoxicity assay, CEM-VCR 1/F3; conditions: 72 hours, read-out: TCS50
Text: as §1, §2, §3

[22] = system: B16 mouse melanoma cell line; test: MTT cytotoxicity assay, B16; conditions: 72 hours, read-out: TCS50
Text: as §1, §2, §3

[23] = system: LNCaP human prostate cancer; test: MTT cytotoxicity assay, LNCaP; conditions: androgen dependent, 72 hours, read-out: TCS50
Text: as §1, with “culture. […]” for “culture.”
(§4) The cell suspensions that were prepared and diluted according to the particular cell type and the expected target cell density (2.500-30.000 cells per well based on cell growth characteristics) were added by pipette (80 μl) into 96/well microtiter plates. […] Usually, test compounds were evaluated at six 4-fold dilutions. […] The optical density (OD) was measured at 540 nm with the Labsystem iEMS Reader MF(UK). […]

[24] = system: DU145 human prostate cancer; test: MTT cytotoxicity assay, DU145; conditions: androgen independent, Rb−/−, 72 hours, read-out: TCS50
Text: as §1, with “culture. […]” for “culture.”
as §4

[25] = system: A549 human lung adenocarcinoma; test: MTT cytotoxicity assay, A549; conditions: 72 hours, read-out: TCS50
Text: as §1, with “culture. […]” for “culture.”
as §4

[26] = system: MCF-7 human breast cancer; test: MTT cytotoxicity assay, MCF-7; conditions: estrogen dependent, p53+/+, Rb +/+, 72 hours, read-out: TCS50
Text: as §1, with “culture. […]” for “culture.”
as §4

[27] = system: OVCAR-3 human ovarian cancer; test: MTT cytotoxicity assay, OVCAR-3; conditions: 72 hours, read-out: TCS50
Text: as §1, with “culture. […]” for “culture.”
as §4

[28] = system: MDA-MB-238 human breast cancer; test: MTT cytotoxicity assay, MDA-MB-238; conditions: estrogen independent, p53mut/mut, 72 hours, read-out: TCS50
Text: as §1, with “culture. […]” for “culture.”
as §4

[29] = system: K562-GEM human promyelocytic leukemia, gemcitabin resistant; test: MTT cytotoxicity assay, K562-GEM; conditions: 72 hours, read-out: TCS50
Text: as §1, with “culture. […]” for “culture.”
as §4

| Molecule | IC50 [1] [µM] | IC50 [2] [µM] | IC50 [3] [µM] | IC50 [5] [µM] | IC50 [6] [µM] | IC50 [7] [µM] | IC50 [8] [µM] | IC50 [9] [µM] | IC50 [11] [µM] | IC50 [12] [µM] | IC50 [14] [µM] | IC50 [15] [µM] | IC50 [16] [µM] | IC50 [19] [µM] | IC50 [20] [µM] | IC50 [21] [µM] | IC50 [22] [µM] | IC50 [4] [µM] | IC50 [23] [µM] | IC50 [24] [µM] | other results |
| --- | --- | --- | --- | --- | --- | --- | --- | --- | --- | --- | --- | --- | --- | --- | --- | --- | --- | --- | --- | --- | --- |
| 3β-acetoxy-lup-20(29)-en-28-oyl fluoride [II.55] | 19 | – | – | – | – | – | – | – | – | – | – | – | – | – | – | – | – | – | – | – | – |
| C=C(C)[C@@H]1CC[C@]2(C(=O)O)CC[C@]3(C)[C@H](CC[C@@H]4[C@@]5(C)CC[C@H](O)C(C)(C)[C@@H]5CC[C@]43C)[C@@H]12 [Betulinic acid, betulinic acid, reference compound] | 250 | 250 | 250 | 250 | 250 | 250 | 250 | 20 | 4.6 | 3.6 | 250 | 2.7 | 24 | 69 | 250 | 19 | 36 | – | – | – | IC50 ([4]; U-87 MG): 250 µM; IC50 ([10]; SAOS-2, Saos2, human rhabdomyosarcoma): 250 µM; IC50 ([13]; SW-620, 72 hours): 250 µM; IC50 ([17]; Lymphocyte): 250 µM; IC50 ([18]; BT-549, p53mut/mut): 250 µM |
| COC(=O)C12CCC3(C)C(CCC4C5(C)CCC(OC(C)=O)C(C)(C)C5CCC43C)C1=C(C(C)C)C(=O)C2=O (stereo not drawn) [II.4, methyl 3β-acetoxy-21,22-dioxolup-18-en-28-oate] | 7.2 | 6.4 | 4.3 | 5.2 | 10 | 5.6 | 5.2 | 8.1 | 68 | 5.1 | 4.9 | 5.9 | 13 | 28 | 97 | 38 | 35 | 24 | 3.3 | 2 | IC50 [25]: 6.7 µM; IC50 [26]: 13 µM; IC50 ([10]; Saos2, human rhabdomyosarcoma): 7.9 µM; IC50 [27]: 4.7 µM; IC50 ([13]; 72 hours): 5.9 µM; IC50 [28]: 3.3 µM; IC50 [29]: 5 µM; IC50 [17]: 85 µM; IC50 ([18]; p53mut/mut): 15 µM |
| C=C(C=O)[C@@H]1CC[C@]2(C(=O)O)CC[C@]3(C)[C@H](CC[C@@H]4[C@@]5(C)CC[C@H](O)C(C)(C)[C@@H]5CC[C@]43C)[C@@H]12 [II.14, 3β-hydroxy-30-oxolup-20(29)-en-28-oic acid] | 3 | 1.6 | 3.9 | 2.1 | 1.6 | 4.7 | 3.3 | 7.7 | 12 | 7.1 | 1.3 | 3.7 | 7.8 | 7 | 16 | 5.9 | 9.3 | 8.4 | 3.6 | 2.8 | IC50 [25]: 3.3 µM; IC50 [26]: 4.3 µM; IC50 ([10]; Saos2, human rhabdomyosarcoma): 4.8 µM; IC50 [27]: 2.6 µM; IC50 ([13]; 72 hours): 5.9 µM; IC50 [28]: 2.4 µM; IC50 [29]: 2.4 µM; IC50 [17]: 25 µM; IC50 ([18]; p53mut/mut): 6.3 µM |
| C=C(C)C1CCC2(C(=O)OC)CCC3(C)C(CCC4C5(C)CCC(OC(=O)OCC(O)CO)C(C)(C)C5CCC43C)C12 (stereo not drawn) [II.45, 17β-methoxycarbonyl-28-norlup-20(29)-en-3β-yl(2,3-dihydroxypropyl)carbonate] | 13 | – | – | – | – | – | – | – | – | – | – | – | – | – | – | – | – | – | – | – | – |
